Results published in US9944654B2, “Nargenicin compounds and uses thereof as antibacterial agents” (priority 2014, dated 2018).
Values after ≈ are worked out from the molar mass of the structure shown. Like-named read-outs stand apart in the source and are kept apart here.

Legend:
[1] = system: Pseudomonas aeruginosa MB5890 (CB1101, efflux-deleted); assay: microbe, parasite or virus in culture; assay type: cell-based; conditions: Pseudomonas aeruginosa, read-out: P. aeruginosa MB5890 efflux-del (MIC), MHII broth; * = some reduction of growth versus control at […]
[2] = target: T1, S. aureus DnaE (DNA polymerase III α-subunit homolog from Staphylococcus aureus) (Staphylococcus aureus, UniProt Q5HF71); assay: biochemical; assay type: biochemical
T1 construct: SaDnaE (S. aureus DnaE residues 1-1065); 6xHis (N); made in house; host or cells: E. coli BL21-AI
T1 sequence (Q5HF71 1-1065): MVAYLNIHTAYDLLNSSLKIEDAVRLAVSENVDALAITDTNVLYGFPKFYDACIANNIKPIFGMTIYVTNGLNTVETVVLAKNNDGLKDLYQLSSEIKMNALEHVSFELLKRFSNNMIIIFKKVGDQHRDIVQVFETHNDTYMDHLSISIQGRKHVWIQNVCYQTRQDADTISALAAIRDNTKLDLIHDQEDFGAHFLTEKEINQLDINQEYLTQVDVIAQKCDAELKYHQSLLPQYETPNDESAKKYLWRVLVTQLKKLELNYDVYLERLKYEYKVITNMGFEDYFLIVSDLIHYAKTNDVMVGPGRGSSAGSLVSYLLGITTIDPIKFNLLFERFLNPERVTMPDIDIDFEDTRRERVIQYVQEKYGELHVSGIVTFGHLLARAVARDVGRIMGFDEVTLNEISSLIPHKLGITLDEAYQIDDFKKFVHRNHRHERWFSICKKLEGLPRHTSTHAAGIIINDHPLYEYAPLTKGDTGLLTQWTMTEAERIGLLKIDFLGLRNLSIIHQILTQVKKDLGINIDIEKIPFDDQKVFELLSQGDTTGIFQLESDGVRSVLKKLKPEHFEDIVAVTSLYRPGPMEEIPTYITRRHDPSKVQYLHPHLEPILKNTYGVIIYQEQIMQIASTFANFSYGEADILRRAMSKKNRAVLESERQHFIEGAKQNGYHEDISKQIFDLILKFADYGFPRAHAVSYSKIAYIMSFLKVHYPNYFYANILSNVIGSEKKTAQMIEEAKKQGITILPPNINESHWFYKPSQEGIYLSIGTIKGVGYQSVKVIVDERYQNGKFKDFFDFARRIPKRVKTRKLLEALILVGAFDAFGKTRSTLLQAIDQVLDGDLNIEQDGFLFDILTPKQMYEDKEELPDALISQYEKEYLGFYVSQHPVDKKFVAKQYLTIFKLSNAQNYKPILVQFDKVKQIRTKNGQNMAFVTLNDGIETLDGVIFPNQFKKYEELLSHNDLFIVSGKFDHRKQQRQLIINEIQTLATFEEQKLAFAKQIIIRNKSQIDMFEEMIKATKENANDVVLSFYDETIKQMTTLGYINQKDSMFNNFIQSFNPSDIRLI
Outline: (§1)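 His-tagged E. coli DnaE (residues 1-1160, 0.8 μg/ml) or S. aureus DnaE (residues 1-1065, 0.05 μg/ml) incubated 30 min at 30° C. with activated calf thymus DNA, 0.025 mM dATP/dGTP/dCTP and 0.011 mM 3H-dTTP in Tris pH 7.5/Mg acetate. TCA-precipitated labelled DNA counted.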

[3] = system: Streptococcus pneumoniae MB6357 (CL 2883); assay: Nargenicin antibacterial assay (MIC), S. pneumoniae; assay type: cell-based; conditions: Streptococcus pneumoniae, read-out: S. pneumoniae MB2883 (MIC), Isosensitest broth; * = some reduction of growth versus control at […]
[4] = target: T2, E. coli DnaE (DNA polymerase III α-subunit from Escherichia coli) (Escherichia coli, UniProt P10443); assay: In vitro DnaE single enzyme assay (E. coli); assay type: biochemical
T2 construct: EcDnaE (E. coli DnaE residues 1-1160); 6xHis (N); made in house; host or cells: E. coli BL21(DE3)
T2 sequence (P10443 whole entry, the tested form may be a part): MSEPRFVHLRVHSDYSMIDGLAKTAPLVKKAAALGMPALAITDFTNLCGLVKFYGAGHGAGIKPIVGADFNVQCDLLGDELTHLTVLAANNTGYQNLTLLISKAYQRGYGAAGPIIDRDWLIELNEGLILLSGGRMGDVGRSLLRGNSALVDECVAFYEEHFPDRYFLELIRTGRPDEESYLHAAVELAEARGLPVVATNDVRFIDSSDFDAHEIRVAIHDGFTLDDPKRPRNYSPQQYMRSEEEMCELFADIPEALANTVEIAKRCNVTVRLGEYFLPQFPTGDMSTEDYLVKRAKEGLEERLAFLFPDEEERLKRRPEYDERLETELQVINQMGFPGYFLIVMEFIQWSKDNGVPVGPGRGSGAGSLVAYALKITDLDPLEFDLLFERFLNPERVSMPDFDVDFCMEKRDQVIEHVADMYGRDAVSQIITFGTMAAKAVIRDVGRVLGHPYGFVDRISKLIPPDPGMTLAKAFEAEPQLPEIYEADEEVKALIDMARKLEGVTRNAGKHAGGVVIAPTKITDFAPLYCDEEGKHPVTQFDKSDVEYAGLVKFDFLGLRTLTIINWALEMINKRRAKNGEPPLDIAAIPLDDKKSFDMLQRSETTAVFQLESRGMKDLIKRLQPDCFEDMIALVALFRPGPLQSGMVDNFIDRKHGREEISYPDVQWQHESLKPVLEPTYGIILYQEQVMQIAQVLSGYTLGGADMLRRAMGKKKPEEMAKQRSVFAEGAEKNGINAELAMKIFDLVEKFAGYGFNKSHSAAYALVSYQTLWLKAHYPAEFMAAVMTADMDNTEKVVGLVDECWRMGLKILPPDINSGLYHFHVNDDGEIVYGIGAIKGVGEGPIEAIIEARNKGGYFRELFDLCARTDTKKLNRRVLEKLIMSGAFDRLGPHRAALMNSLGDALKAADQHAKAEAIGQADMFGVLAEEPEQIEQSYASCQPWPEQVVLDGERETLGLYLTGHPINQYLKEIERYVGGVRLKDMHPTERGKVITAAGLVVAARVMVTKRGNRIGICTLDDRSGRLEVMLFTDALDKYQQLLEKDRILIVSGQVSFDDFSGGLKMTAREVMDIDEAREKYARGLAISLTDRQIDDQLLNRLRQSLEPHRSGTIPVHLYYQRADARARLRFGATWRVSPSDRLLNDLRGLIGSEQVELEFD
Outline: as §1

[5] = system: Escherichia coli MB5747 (LS 883, tolC); assay: microbe, parasite or virus in culture; assay type: cell-based; conditions: Escherichia coli, read-out: E. coli LS883 tolC (MIC), MHII broth; * = some reduction of growth versus control at […]
[6] = system: Staphylococcus aureus MB6266 (MRSA COL); assay: Nargenicin antibacterial assay (MIC), S. aureus; assay type: cell-based; conditions: Staphylococcus aureus, MRSA, read-out: S. aureus COL (MIC), MHII broth + 50% human serum; * = some reduction of growth versus control at […]
[7] = read-out: E. coli DnaE IC50 (converted)
[8] = read-out: S. aureus DnaE IC50 (converted)

Structure (SMILES)	MIC [1]	IC50 ([2]; S. aureus DnaE IC50)	MIC [3]	IC50 [4, 7]	MIC [5]	MIC [6]	IC50 [2, 8]	IC50 ([4]; E. coli DnaE IC50)
CO[C@H]1C[C@H]2C=C[C@H]3[C@H]4O[C@]2(/C(C)=C/[C@@H](C)[C@@H]([C@@H](C)OC(=O)NCc2ccncc2)OC1=O)[C@@H]3[C@H](O)[C@@H](C)[C@H]4OC(=O)c1ccc[nH]1 [Example 11]	> 128 µg/mL	0.0292 µM	> 128 µg/mL	123 µM	16 µg/mL (≈ 24.6 µM)	32 µg/mL		
CO[C@H]1CC2C=C[C@H]3[C@H]4O[C@]2(/C(C)=C/[C@@H](C)[C@@H](C(C)O)OC1=O)[C@@H]3[C@H](O)[C@@H](C)[C@H]4OC(=O)c1[nH]c(-c2ccsc2)c(-c2ccsc2)c1-c1ccsc1 (stereo partly drawn) [Example 201]	> 128 µg/mL	0.394 µM	128 µg/mL (≈ 168 µM)	0.525 µM	> 128 µg/mL	> 128 µg/mL		
CO[C@H]1C[C@H]2C=C[C@H]3[C@H]4O[C@]2(/C(C)=C/[C@@H](C)[C@@H]([C@@H](C)OC(=O)NCCc2ccccc2)OC1=O)[C@@H]3[C@H](O)[C@@H](C)[C@H]4OC(=O)c1ccc[nH]1 [Example 8]	> 128 µg/mL	0.0679 µM	> 128 µg/mL	45.3 µM	> 128 µg/mL	> 128 µg/mL		
CCCCCCCCNC(=O)O[C@H](C)[C@H]1OC(=O)[C@@H](OC)C[C@H]2C=C[C@H]3[C@H]4O[C@]2(/C(C)=C/[C@H]1C)[C@@H]3[C@H](O)[C@@H](C)[C@H]4OC(=O)c1ccc[nH]1 [Example 14]	> 128 µg/mL	0.119 µM	32 µg/mL (≈ 47.7 µM)	16.4 µM	> 128 µg/mL	> 128 µg/mL		
CO[C@H]1C[C@H]2[C@H](O)C[C@H]3[C@H]4O[C@]2(/C(C)=C/[C@@H](C)[C@@H]([C@@H](C)O)OC1=O)[C@@H]3[C@H](O)[C@@H](C)[C@H]4OC(=O)c1ccc[nH]1 [Example 191]	> 128 µg/mL	7.5 µM	> 128 µg/mL	> 187 µM	128 µg/mL (≈ 240 µM)	> 128 µg/mL		
CO[C@H]1C[C@H]2C=C[C@H]3[C@H]4O[C@]2(/C(C)=C/[C@H](C)[C@@H](c2ccccc2)OC1=O)[C@@H]3[C@H](O)[C@@H](C)[C@H]4OC(=O)c1ccc[nH]1 [Example 53]	> 128 µg/mL	0.183 µM	> 128 µg/mL	73 µM	> 128 µg/mL	> 128 µg/mL		
CO[C@H]1C[C@H]2C=CC3C4[C@H](O)[C@@H](C)[C@@H](OC(=O)c5ccc[nH]5)[C@@H]3O[C@]42/C(C)=C/[C@@H](C)[C@@H]([C@@H](C)OC(=O)C(=O)OCc2cncn2C)OC1=O.O=C(O)C(F)(F)F [Example 207]	64 µg/mL	< 0.00754 µM	> 64 µg/mL	3.27 µM	4 µg/mL	4 µg/mL		
CO[C@H]1CC2C=C[C@H]3[C@H]4O[C@]2(/C(C)=C/[C@@H](C)[C@@H]([C@@H](C)OC(=O)NN)OC1=O)[C@@H]3[C@H](O)[C@@H](C)[C@H]4OC(=O)c1ccc[nH]1 (stereo partly drawn) [Example 18]	> 128 µg/mL	< 0.0105 µM	128 µg/mL (≈ 223 µM)	105 µM	4 µg/mL (≈ 6.97 µM)	8 µg/mL		
C=CC[C@@H]1OC(=O)[C@@H](OC)C[C@H]2C=C[C@H]3[C@H]4O[C@]2(/C(C)=C/[C@H]1C)[C@@H]3[C@H](O)[C@@H](C)[C@H]4OC(=O)c1ccc[nH]1 [Example 54]	> 128 µg/mL	0.088 µM	> 128 µg/mL	60.6 µM	64 µg/mL (≈ 125 µM)	64 µg/mL		
CO[C@H]1C[C@H]2C=CC3C4[C@H](O)[C@@H](C)[C@@H](OC(=O)c5ccc(OC(C)=O)n5O)[C@@H]3O[C@]42/C(C)=C/[C@@H](C)[C@@H]([C@@H](C)O)OC1=O [Example 173]	16 µg/mL (≈ 27.1 µM)	0.543 µM	128 µg/mL (≈ 217 µM)	> 170 µM	8 µg/mL (≈ 13.6 µM)	> 128 µg/mL		
CO[C@H]1C[C@H]2C=C[C@H]3[C@H]4O[C@]2(/C(C)=C/[C@@H](C)[C@@H]([C@@H](C)OC(=O)NC2CC2)OC1=O)[C@@H]3[C@H](O)[C@@H](C)[C@H]4OC(=O)c1ccc[nH]1 [Example 6]	> 128 µg/mL	0.0184 µM	128 µg/mL (≈ 214 µM)	75.2 µM	4 µg/mL (≈ 6.68 µM)	8 µg/mL		
CO[C@H]1C[C@H]2C=C[C@H]3[C@H]4O[C@]2(/C(C)=C/[C@@H](C)[C@@H]([C@@H](C)OC(=O)NCc2ccccc2)OC1=O)[C@@H]3[C@H](O)[C@@H](C)[C@H]4OC(=O)c1ccc[nH]1 [Example 10]	> 128 µg/mL	0.0308 µM	> 128 µg/mL	> 154 µM	> 128 µg/mL	8 µg/mL		
CO[C@H]1C[C@H]2C=C[C@H]3[C@H]4O[C@]2(/C(C)=C/[C@@H](C)[C@@H]([C@@H](C)O)OC1=O)[C@@H]3[C@H](O)C(C)[C@@H]4CO (stereo partly drawn) [Example 163, (3R,4S,7S,8aS,10aR,11R,12R,14R,14aS,14bS,E)-14-hydroxy-4-((R)-1-hydroxyethyl)-12-(hydroxymethyl)-7-methoxy-1,3,13-trimethyl-3,4,8,8a,10a,11,12,13,14,14a-decahydro-11,14b-epoxynaphtho[2,1-e]oxecin-6(7H)-one]	8 µg/mL (≈ 18.3 µM)		> 128 µg/mL		8 µg/mL (≈ 18.3 µM)	> 128 µg/mL	0.687 µM	> 229 µM
CO[C@H]1C[C@H]2C=C[C@H]3[C@H]4O[C@]2(/C(C)=C/[C@@H](C)[C@@H]([C@@H](C)OC(=O)NCc2ccc(O)c(O)c2)OC1=O)[C@@H]3[C@H](O)[C@@H](C)[C@H]4OC(=O)c1ccc[nH]1 [Example 17]	> 128 µg/mL	< 0.00881 µM	> 128 µg/mL	22 µM	8 µg/mL (≈ 11.8 µM)	8 µg/mL		
CO[C@H]1C[C@H]2C=C[C@H]3[C@H]4O[C@]2(/C(C)=C/[C@@H](C)[C@@H]([C@@H](C)OC(=O)c2ccccc2)OC1=O)[C@@H]3[C@H](O)[C@@H](C)[C@H]4OC(=O)c1ccc[nH]1 [Example 67]	> 128 µg/mL		> 128 µg/mL		> 128 µg/mL	> 128 µg/mL	0.0113 µM	12.9 µM
CO[C@H]1C[C@H]2C=C[C@H]3[C@H]4O[C@]2(/C(C)=C/[C@@H](C)[C@@H]([C@@H](C)OC(N)=O)OC1=O)[C@@H]3[C@H](OC(N)=O)[C@@H](C)[C@H]4OC(=O)c1ccc[nH]1 [Example 4]	> 128 µg/mL	1.16 µM	> 128 µg/mL	> 166 µM	> 128 µg/mL	> 128 µg/mL		
CO[C@H]1C[C@H]2C=CC3C4[C@H](O)[C@@H](C)[C@@H](OC(=O)c5cc(NC(C)=O)c[nH]5)[C@@H]3O[C@]42/C(C)=C/[C@@H](C)[C@@H]([C@@H](C)O)OC1=O [Example 168, (3R,4S,7S,8aS,11R,12R,13R,14R,14bS,E)-14-hydroxy-4-((R)-1-hydroxyethyl)-7-methoxy-1,3,13-trimethyl-6-oxo-3,4,6,7,8,8a,10a,11,12,13,14,14a-dodecahydro-11,14b-epoxynaphtho[2,1-e]oxecin-12-yl 4-acetamido-1H-pyrrole-2-carboxylate]	> 64 µg/mL	31.4 µM	> 64 µg/mL	> 87.3 µM	> 128 µg/mL	> 128 µg/mL		
